Source: the supplement of paper PMC10307832

Assays:
Experiment in all cases: relative viability (nuclei count vs DMSO), 5 days (fraction); higher = more cells survive
Carfilzomib + Foretinib = compound: CC(C)C[C@H](NC(=O)[C@H](CCc1ccccc1)NC(=O)CN1CCOCC1)C(=O)N[C@@H](Cc1ccccc1)C(=O)N[C@@H](CC(C)C)C(=O)[C@@]1(C)CO1 [Carfilzomib] + COc1cc2c(Oc3ccc(NC(=O)C4(C(=O)Nc5ccc(F)cc5)CC4)cc3F)ccnc2cc1OCCCN1CCOCC1 [Foretinib] (partner 0.25 µM)
Procedure, shortened: (§1)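 After 5 days of treatment, lung cancer cells in 1536-well plates were fixed and stained in a single step (final 0.05% Triton X-100, 1% formaldehyde, 1 ug/ml Hoechst) and their nuclei counted on 4× images. Treatment had been applied by pin tool the day after seeding as one drug alone or as a fixed anchor-drug dose with five library-drug doses (not always all listed) in √10 steps. Relative viability is the nuclei count of treated wells divided by that of vehicle wells, and values are medians of duplicate plates.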

Carfilzomib + Pictilisib = compound: CC(C)C[C@H](NC(=O)[C@H](CCc1ccccc1)NC(=O)CN1CCOCC1)C(=O)N[C@@H](Cc1ccccc1)C(=O)N[C@@H](CC(C)C)C(=O)[C@@]1(C)CO1 [Carfilzomib] + CS(=O)(=O)N1CCN(Cc2cc3nc(-c4cccc5[nH]ncc45)nc(N4CCOCC4)c3s2)CC1 [Pictilisib] (partner 1 µM)
Procedure, shortened: as §1

Crizotinib + Navitoclax = compound: C[C@@H](Oc1cc(-c2cnn(C3CCNCC3)c2)cnc1N)c1c(Cl)ccc(F)c1Cl [Crizotinib] + CC1(C)CCC(c2ccc(Cl)cc2)=C(CN2CCN(c3ccc(C(=O)NS(=O)(=O)c4ccc(N[C@H](CCN5CCOCC5)CSc5ccccc5)c(S(=O)(=O)C(F)(F)F)c4)cc3)CC2)C1 [Navitoclax] (partner 0.5 µM)
Procedure, shortened: as §1

Crizotinib + Foretinib = compound: C[C@@H](Oc1cc(-c2cnn(C3CCNCC3)c2)cnc1N)c1c(Cl)ccc(F)c1Cl [Crizotinib] + COc1cc2c(Oc3ccc(NC(=O)C4(C(=O)Nc5ccc(F)cc5)CC4)cc3F)ccnc2cc1OCCCN1CCOCC1 [Foretinib] (partner 0.25 µM)
Procedure, shortened: as §1

Cell Line	relative viability (Carfilzomib + Foretinib; first compound 0.001 µM)	relative viability (Carfilzomib + Foretinib; first compound 0.003162 µM)	relative viability (Carfilzomib + Foretinib; first compound 0.01 µM)	relative viability (Carfilzomib + Foretinib; first compound 0.03162 µM)	relative viability (Carfilzomib + Foretinib; first compound 0.1 µM)	relative viability (Carfilzomib + Pictilisib; first compound 0.001 µM)	relative viability (Carfilzomib + Pictilisib; first compound 0.003162 µM)	relative viability (Carfilzomib + Pictilisib; first compound 0.01 µM)	relative viability (Carfilzomib + Pictilisib; first compound 0.03162 µM)	relative viability (Carfilzomib + Pictilisib; first compound 0.1 µM)	relative viability (Crizotinib + Navitoclax; first compound 0.01 µM)	relative viability (Crizotinib + Navitoclax; first compound 0.03162 µM)	relative viability (Crizotinib + Navitoclax; first compound 0.1 µM)	relative viability (Crizotinib + Navitoclax; first compound 0.3162 µM)	relative viability (Crizotinib + Navitoclax; first compound 1 µM)	relative viability (Crizotinib + Foretinib; first compound 0.01 µM)	relative viability (Crizotinib + Foretinib; first compound 0.03162 µM)	relative viability (Crizotinib + Foretinib; first compound 0.1 µM)	relative viability (Crizotinib + Foretinib; first compound 0.3162 µM)	relative viability (Crizotinib + Foretinib; first compound 1 µM)
NCI-H1437	1.29	1.4	1.29	1.19	0.284	0.313	0.463	0.41	0.322	0.0975	1.05	1.07	1.14	1.02	1.13	1.14	1.22	1.25	1.27	1.32
NCI-H1650	1.22	0.965	0.954	0.125	0.321	–	0.685	0.284	0.127	0.151	1.1	1.15	1.08	1.2	1.13	–	1.1	0.949	1.07	1.43
NCI-H1651	0.906	0.762	0.71	0.112	0.0981	0.551	0.601	0.231	0.0999	0.0685	0.98	1.12	0.997	1.15	1.28	0.615	0.725	0.843	0.864	0.902
NCI-H1666	0.988	0.979	1.07	0.928	0.45	0.536	0.676	0.586	0.422	0.228	0.93	0.81	0.857	0.876	1.06	0.921	0.969	0.99	0.964	0.955
NCI-H1703	–	0.421	0.231	0.126	0.154	0.202	0.3	0.17	0.16	0.144	1.03	0.933	–	–	1.12	0.362	0.295	0.358	0.398	0.331
NCI-H1734	0.876	1.06	0.954	0.401	0.105	0.476	0.501	0.389	0.234	0.127	0.888	0.81	0.844	–	–	0.811	0.847	0.753	–	0.805
NCI-H1755	0.954	0.939	0.954	0.928	0.479	0.412	0.479	0.413	0.239	0.16	0.937	1.02	0.999	0.961	0.983	0.835	0.923	0.887	0.877	0.891
